Tested on: S. aureus biofilm
Assay: Model for studying S. aureus biofilm on reconstructed epidermises (scanning electron microscopy)
Assay type: cell-based, Staphylococcus aureus (MRSA; ATCC 33591)
Conditions: 24 hours after colonization
Method: The test products (P1, P5 or P8) or 5% xylitol (positive control for inhibition of biofilm formation) were applied topically to reconstructed epidermises at a rate of 30 μL/epidermis, after undergoing slight surface abrasion.
After incubation overnight, the products were removed by rinsing and a 2·10^6 cfu inoculum of Staphylococcus aureus (methicillin-resistant S. aureus, MRSA; ATCC 33591) was applied to the surface of the reconstructed epidermises.
Biofilm formation and the effect of the product thereon were observed visually by scanning electron microscopy (SEM) 6 and 24 hours after colonization.

For OC[C@@H](O)[C@H](O)[C@@H](O)CO [xylitol], the “S. aureus biofilm formation on the surface of epidermises, observed by SEM (in words)” value was “did not produce biofilm”.
